Source: PubChem BioAssay AID248 (DTP/NCI, 2004)
Several values for one entry are separate records, joined by “and”; a condition that tells them apart may be missing. Identical values can stand only once. Inconclusive results and toxic doses are left out.

Tested on: L1210 leukemia ip in BDF1 mice, survival T/C
Assay: NCI In Vivo Anticancer Drug Screen. Data for tumor model L1210 Leukemia (intraperitoneal) in B6D2F1 (BDF1) mice
Conditions: endpoint: mean survival time, higher = longer survival
Outline: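 Mice bearing the transplanted tumor received compound or vehicle. Survival of the treated group was divided by that of the vehicle-treated control group to give the ratio.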

[1] = dose: 100.0 mg/kg/injection, schedule: Q04DX003 (ip), vehicle: saline
[2] = dose: 100.0 mg/kg/injection, schedule: Q01DX001 (ip), vehicle: carboxymethylcellulose (CMC)
[3] = dose: 200.0 mg/kg/injection, schedule: Q01DX001 (ip), vehicle: carboxymethylcellulose (CMC)
[4] = dose: 400.0 mg/kg/injection, schedule: Q01DX001 (ip), vehicle: carboxymethylcellulose (CMC)
[5] = dose: 100.0 mg/kg/injection, schedule: Q04DX002 (ip), vehicle: saline
[6] = dose: 200.0 mg/kg/injection, schedule: Q04DX002 (ip), vehicle: saline
[7] = dose: 100.0 mg/kg/injection, schedule: Q04DX003 (ip), vehicle: Klucel (hydroxypropylcellulose) (HPC)
[8] = dose: 200.0 mg/kg/injection, schedule: Q04DX003 (ip), vehicle: Klucel (hydroxypropylcellulose) (HPC)
[9] = dose: 400.0 mg/kg/injection, schedule: Q04DX003 (ip), vehicle: Klucel (hydroxypropylcellulose) (HPC)
[10] = dose: 100.0 mg/kg/injection, schedule: Q01DX009 (ip), vehicle: saline with Tween-80
[11] = dose: 200.0 mg/kg/injection, schedule: Q01DX009 (ip), vehicle: saline with Tween-80
[12] = dose: 12.5 mg/kg/injection, schedule: Q04DX003 (ip), vehicle: saline
[13] = dose: 25.0 mg/kg/injection, schedule: Q04DX003 (ip), vehicle: saline
[14] = dose: 50.0 mg/kg/injection, schedule: Q04DX003 (ip), vehicle: saline
[15] = dose: 25.0 mg/kg/injection, schedule: Q04DX002 (ip), vehicle: saline with Tween-80
[16] = dose: 50.0 mg/kg/injection, schedule: Q04DX002 (ip), vehicle: saline with Tween-80
[17] = dose: 100.0 mg/kg/injection, schedule: Q04DX002 (ip), vehicle: saline with Tween-80

## CCCCCCC(O)CO (configuration not stated)
[1]
  T/C: 105 % of control
dose: 200.0 mg/kg/injection, schedule: Q04DX003 (ip), vehicle: saline
  T/C: 112 % of control
dose: 400.0 mg/kg/injection, schedule: Q04DX003 (ip), vehicle: saline
  T/C: 109 % of control

## NC(=O)Nc1ccc2c(c1)Cc1cc(F)ccc1-2
dose: 87.0 mg/kg/injection, schedule: Q01DX001 (ip), vehicle: other
  T/C: 100 % of control
dose: 89.0 mg/kg/injection, schedule: Q01DX001 (ip), vehicle: carboxymethylcellulose (CMC)
  T/C: 97 % of control and 109 % of control
[2]
  T/C: 97 % of control
dose: 132.0 mg/kg/injection, schedule: Q01DX001 (ip), vehicle: other
  T/C: 97 % of control
dose: 133.0 mg/kg/injection, schedule: Q01DX001 (ip), vehicle: carboxymethylcellulose (CMC)
  T/C: 100 % of control and 112 % of control
[3]
  T/C: 104 % of control and 105 % of control
dose: 200.0 mg/kg/injection, schedule: Q01DX001 (ip), vehicle: other
  T/C: 92 % of control
dose: 300.0 mg/kg/injection, schedule: Q01DX001 (ip), vehicle: carboxymethylcellulose (CMC)
  T/C: 101 % of control and 108 % of control
dose: 300.0 mg/kg/injection, schedule: Q01DX001 (ip), vehicle: other
  T/C: 97 % of control
[4]
  T/C: 105 % of control

## CC(C)C(=O)Nc1cccc(OC(=O)NC(C)(C)C)c1
dose: 200.0 mg/kg/injection, schedule: Q01DX001 (ip), vehicle: saline with Tween-80
  T/C: 89 % of control
dose: 400.0 mg/kg/injection, schedule: Q01DX001 (ip), vehicle: saline with Tween-80
  T/C: 87 % of control

## CC12CC3CC(C)(C1)CC(SCCN)(C3)C2
[5]
  T/C: 97 % of control
[6]
  T/C: 97 % of control

## O=[N+]([O-])c1ccc2c(c1)/C(=N\O)c1cc(Cl)ccc1-2
[2]
  T/C: 97 % of control
[3]
  T/C: 97 % of control
[4]
  T/C: 94 % of control

## O=C(O)C1(C(=O)O)C=CCCC1
dose: 100.0 mg/kg/injection, schedule: Q01DX009 (ip), vehicle: saline + alcohol
  T/C: 89 % of control
[7]
  T/C: 100 % of control
dose: 200.0 mg/kg/injection, schedule: Q01DX009 (ip), vehicle: saline + alcohol
  T/C: 102 % of control
[8]
  T/C: 97 % of control
[9]
  T/C: 107 % of control

## O=c1[nH][nH]c(=O)c2c1CCCC2
dose: 50.0 mg/kg/injection, schedule: Q01DX009 (ip), vehicle: saline with Tween-80
  T/C: 98 % of control
[10]
  T/C: 95 % of control
[11]
  T/C: 109 % of control

## O=C(O)c1ccc(Nc2c3ccccc3nc3ccccc23)cc1
dose: 50.0 mg/kg/injection, schedule: Q01DX009 (ip), vehicle: Klucel (hydroxypropylcellulose) (HPC)
  T/C: 177 % of control
dose: 100.0 mg/kg/injection, schedule: Q01DX009 (ip), vehicle: Klucel (hydroxypropylcellulose) (HPC)
  T/C: 243 % of control

## C=C1CC(OC(C)=O)C2C(C)C(=O)OC2C2C1CC1OC12C (configuration not stated)
[5]
  T/C: 92 % of control
[6]
  T/C: 92 % of control

## Nc1ccnc(SCCCCc2ccccc2)n1
dose: 100.0 mg/kg/injection, schedule: Q04DX003 (ip), vehicle: gum acacia
  T/C: 90 % of control
dose: 200.0 mg/kg/injection, schedule: Q04DX003 (ip), vehicle: gum acacia
  T/C: 93 % of control
dose: 400.0 mg/kg/injection, schedule: Q04DX003 (ip), vehicle: gum acacia
  T/C: 90 % of control

## CC[N+](CC)(CC)CCCNC(=O)C12CC3CC(CC(C3)C1)C2
dose: 25.0 mg/kg/injection, schedule: Q04DX002 (ip), vehicle: saline
  T/C: 95 % of control
dose: 50.0 mg/kg/injection, schedule: Q04DX002 (ip), vehicle: saline
  T/C: 101 % of control

## CCc1ccc(N=Nc2ccc(Br)cc2)cc1
[2]
  T/C: 93 % of control
[3]
  T/C: 98 % of control
[4]
  T/C: 98 % of control

## NC(N)=NCCCC(N)C(=O)NCCCCCCNC(=O)CCC(=O)NCCCCCCNC(=O)C(N)CCCN=C(N)N (configuration not stated)
dose: 62.5 mg/kg/injection, schedule: Q01DX010 (ip), vehicle: saline
  T/C: 94 % of control
dose: 125.0 mg/kg/injection, schedule: Q01DX010 (ip), vehicle: saline
  T/C: 98 % of control
dose: 250.0 mg/kg/injection, schedule: Q01DX010 (ip), vehicle: saline
  T/C: 100 % of control
dose: 500.0 mg/kg/injection, schedule: Q01DX010 (ip), vehicle: saline
  T/C: 113 % of control

## O=c1[nH]c2c(c(=O)[nH]1)OCN(Cc1ccccc1)C2
dose: 50.0 mg/kg/injection, schedule: Q01DX001 (ip), vehicle: carboxymethylcellulose (CMC)
  T/C: 98 % of control
[2]
  T/C: 105 % of control
[3]
  T/C: 100 % of control
[4]
  T/C: 100 % of control

## CCCCCCCCCCCCNC(=O)c1cc[n+](C)cc1
[12]
  T/C: 103 % of control and 88 % of control and 93 % of control
[13]
  T/C: 99 % of control and 87 % of control and 91 % of control
[14]
  T/C: 93 % of control and 91 % of control and 88 % of control

## CCCCCCCC/C=C\CCCCCCCCSC#N
[15]
  T/C: 97 % of control
[16]
  T/C: 106 % of control
[10]
  T/C: 97 % of control
[17]
  T/C: 100 % of control
[11]
  T/C: 97 % of control
dose: 200.0 mg/kg/injection, schedule: Q04DX002 (ip), vehicle: saline with Tween-80
  T/C: 103 % of control
dose: 400.0 mg/kg/injection, schedule: Q04DX002 (ip), vehicle: saline with Tween-80
  T/C: 87 % of control

## CC(F)(F)C(F)(F)C(=O)CC(=O)C(F)(F)F.CC(F)(F)C(F)(F)C(=O)CC(=O)C(F)(F)F.[Cu]
dose: 6.25 mg/kg/injection, schedule: Q01DX009 (ip), vehicle: saline with Tween-80
  T/C: 88 % of control
dose: 6.25 mg/kg/injection, schedule: Q04DX003 (ip), vehicle: saline with Tween-80
  T/C: 91 % of control
dose: 12.5 mg/kg/injection, schedule: Q01DX009 (ip), vehicle: saline with Tween-80
  T/C: 101 % of control
dose: 12.5 mg/kg/injection, schedule: Q04DX003 (ip), vehicle: saline with Tween-80
  T/C: 95 % of control
dose: 25.0 mg/kg/injection, schedule: Q01DX009 (ip), vehicle: saline with Tween-80
  T/C: 90 % of control
dose: 25.0 mg/kg/injection, schedule: Q04DX003 (ip), vehicle: saline with Tween-80
  T/C: 95 % of control

## CC(N)CCc1ccccc1 (configuration not stated)
dose: 10.0 mg/kg/injection, schedule: Q01DX001 (ip), vehicle: saline
  T/C: 105 % of control
dose: 12.5 mg/kg/injection, schedule: Q01DX009 (ip), vehicle: saline
  T/C: 97 % of control
[12]
  T/C: 102 % of control
dose: 20.0 mg/kg/injection, schedule: Q01DX001 (ip), vehicle: saline
  T/C: 101 % of control
dose: 25.0 mg/kg/injection, schedule: Q01DX009 (ip), vehicle: saline
  T/C: 95 % of control
[13]
  T/C: 112 % of control
dose: 40.0 mg/kg/injection, schedule: Q01DX001 (ip), vehicle: saline
  T/C: 95 % of control
dose: 50.0 mg/kg/injection, schedule: Q01DX009 (ip), vehicle: saline
  T/C: 97 % of control
dose: 50.0 mg/kg/injection, schedule: Q04DX003 (ip), vehicle: saline with Tween-80
  T/C: 90 % of control
[14]
  T/C: 104 % of control
dose: 80.0 mg/kg/injection, schedule: Q01DX001 (ip), vehicle: saline
  T/C: 101 % of control
dose: 100.0 mg/kg/injection, schedule: Q01DX001 (ip), vehicle: saline
  T/C: 100 % of control

## C=CCN(CC=C)C(=O)C(C)O (configuration not stated)
dose: 100.0 mg/kg/injection, schedule: Q04DX003 (ip), vehicle: saline with Tween-80
  T/C: 103 % of control
dose: 200.0 mg/kg/injection, schedule: Q04DX003 (ip), vehicle: saline with Tween-80
  T/C: 103 % of control
dose: 400.0 mg/kg/injection, schedule: Q04DX003 (ip), vehicle: saline with Tween-80
  T/C: 98 % of control

## N#Cc1nccnc1C#N
dose: 25.0 mg/kg/injection, schedule: Q04DX002 (ip), vehicle: DMSO
  T/C: 96 % of control
dose: 50.0 mg/kg/injection, schedule: Q04DX002 (ip), vehicle: DMSO
  T/C: 100 % of control
dose: 100.0 mg/kg/injection, schedule: Q04DX002 (ip), vehicle: DMSO
  T/C: 100 % of control

## CC(C)C(C=NCC(CCN1CCOCC1)(c1ccc2ccccc2c1)C(C)C)(CCN1CCOCC1)c1ccc2ccccc2c1 (configuration not stated)
[15]
  T/C: 92 % of control
[16]
  T/C: 98 % of control
[17]
  T/C: 92 % of control

## CN1CC2C(N)N=C(N)NC2C1(C)C (configuration not stated)
[5]
  T/C: 101 % of control
[6]
  T/C: 93 % of control
dose: 400.0 mg/kg/injection, schedule: Q04DX002 (ip), vehicle: saline
  T/C: 90 % of control

## CCOC(=O)COc1cc(Cl)c(S(=O)(=O)F)cc1Cl
[7]
  T/C: 96 % of control
[8]
  T/C: 104 % of control
[9]
  T/C: 91 % of control

## CCOC(=O)c1ccc(N2C(N)=NC(N)=NC2(C)C)cc1
[1]
  T/C: 101 % of control
